Assay results taken from patent publication US9649292B2, “Method for treating prostate cancer and/or gastrointestinal cancer” (King Fahd University of Petroleum and Minerals, priority 2015, dated 2017).

Experiments:
PC3 cells [1] = assay: MTT assay for antiproliferative effects at fixed concentration; assay type: cell-based, human; conditions: PC3, 10 μM, 24 and 72 h
Method: (§1) An MTT assay was used to obtain the number of living cells in the sample. Human gastric cancer SGC7901 and prostate cancer PC3 cells were seeded on 96-well plates at a predetermined optimal cell density, i.e. ca. 6,000 cells/100 μL per well in 96-well plates, to ensure exponential growth in the duration of the assay. After 24 h pre-incubation, the growth medium was replaced with the experimental medium containing the appropriate drug, using one of gold(III) compounds 1, 2 and 3 or a control using water. Six duplicate wells were set up for each sample, and cells untreated with drug served as a control. In one set of culture plates, human gastric cancer SGC7901 and human prostate PC3 cells were treated with 10 μM compounds 1, 2 and 3 as the drug and the control (water) for 24, 48 and 72 h. In other sets, the compounds 1, 2 and 3 with different concentration, i.e. 10, 20 and 30 μM, were employed to determine the growth inhibitory effect for both PC3 and SGC7901cells separately. After incubation, 10 μL MTT (6 g/L, Sigma) was added to each well and the incubation was continued for 4 h at 37° C. After removal of the medium, MTT stabilization solution [dimethylsulfoxide (DMSO): ethanol (C2H5OH)=1:1 in v/v ratio] was added to each well, and shaken for 10 min until all crystals were dissolved. Then, the optical density was detected in a micro plate reader at 550 nm wavelength using an Enzyme-Linked Immuno-Sorbent Assay (ELISA) reader. After being treated with gold(III) complexes 1, 2 and 3, the cell viability was examined by MTT assay. Each assay was performed in triplicate. An MTT assay for the inhibitory effect has been used for compounds 1, 2 and 3 against PC3 and SGC7901 cells. These cells were treated with various concentrations of compounds 1, 2 and 3 for 24-72 h.

SGC7901 cells [2] = assay: as above; assay type: cell-based, human; conditions: SGC7901, 10 μM, 24 and 72 h
Method: as §1

[3] = Cyclic voltammetry in phosphate buffer; assay type: physicochemical; conditions: phosphate buffer pH 7.4, platinum electrode, 50 mV/s, 1.0 mM
Method: The electrochemical experiments were performed at room temperature using a potentiostat (SP-300, Bio-Logic Science Instruments) controlled by EC-Lab v10.34 software package. The electrochemical experiments were performed at room temperature. All the measurements were performed on solutions de-aerated by bubbling ultra-pure nitrogen for 15 min. The values of reduction potential here reported were measured against a saturated calomel electrode (SCE). The cyclic voltammetry of the compounds 1, 2 and 3 were measured at scan rate of 50 mV/s on a reference buffer (40 mM phosphate, 4 mM NaCl, pH 7.4) using platinum as working electrode and graphite as a counter electrode with a concentration of 1.0 mM at room temperature. Ferrocene was used as pseudo reference to calibrate the working electrode. The couple FeIII/II formal potential of ferrocene occur at E^o/=+0.44 V (vs SCE) in 0.1 MBu4NPF6 solution in CH3CN solvent which is similar to the report value under the same experimental condition [Hans J, Beckmann A, Kruger H-J (1999) Stabilization of Copper(III) ions with deprotonated hydroxyiminoamide ligands: syntheses, structures, and electronic properties of Copper(III) and Copper(III) complexes. Eur J Inorg Chem 1:163-172—incorporated herein by reference in its entirety]. Conversion to values vs ENH was obtained upon adding +0.24 V to the corresponding SCE values.
Gold(III) complexes 1, 2 and 3 show one irreversible reduction process in which the controlled potential coulometry involves three electrons per mole. The occurrence of Au(III)/Au(0) reduction is visually indicated by the appearance of a thin gold layer deposited on the platinum electrode surface after exhaustive electrolysis (Ew, −0.7 V).

[4] = Stability by 1H and 13C NMR in D2O and DMSO-d6/D2O; assay type: physicochemical; conditions: DMSO-d6/D2O (2/1 v/v), room temperature
Method: The stability of complexes 1, 2 and 3 were tested in water as well as in a mixture of solvents i.e. DMSO/water (2/1 in v/v ratio) by ^1H and ^13C NMR measurements. To investigate the structural stability of the complexes, NMR spectra of the complexes dissolved in D2O; and in mixed DMSO-d6/D2O (2/1 in v/v ratio) solution were obtained just after dissolution, 24 h and 1 week at room temperature in mixed DMSO-d6/D2O and at 37° C. in D2O. At least 20 mg of complexes 1, 2 and 3 in 1 mL D2O at 37° C.; and in 1 mL DMSO-d6/D2O (2/1:v/v) at room temperature were subjected to ^1H and ^13C NMR measurements and followed by their spectral analysis. Immediately after dissolution of complexes 1, 2 and 3 in the respective solvents and duplicate samples were then stored at room temperature and 37° C., respectively, and analyzed again after 24 h and 1 week in order to determine stability of complexes. Since the complexes were not used beyond a week after dissolution, so NMR measurements were limited to one week.
NMR spectra of the complexes were obtained upon immediate dissolution to serve as reference spectra and later at 24 h and after 7 days at 37° C. in D2O and at room temperature in mixed DMSO-d6/D2O in order to determine their stability. […] For example, FIGS. 12A-B and 13A-B illustrated, respectively, the ^1H and ^13C NMR profiles of the compound 1 at just after mixing and after 7 days.

PC3 cells [5] = conditions: cited from earlier work
SGC7901 cells [6] = conditions: cited from earlier work; for cytotoxicity with respect to cisplatin: SGC7901 cells
[7] = tested on: chronic lymphocytic leukemia cells (CLL); conditions: cited from earlier work
PC3 cells [8] = assay: In vitro cytotoxic MTT assay, IC50; assay type: cell-based, human; conditions: 72 h exposure
Method: (§2) Human prostate PC3 and gastric SGC7901 cells were used throughout the examples of the present disclosure. Cells were cultured in Dulbecco's Modified Eagle Medium (DMEM) supplemented with 10% fetal calf serum (FCS), penicillin (100 kU L^−1) and streptomycin (0.1 g L^−1) at 37° C. in a 5% CO2-95% air atmosphere. Human gastric SGC7901 cells and prostate PC3 were incubated with these compounds at fixed concentrations or with water as a control to assess the inhibitory effect on cell growth. […] The cell survival versus drug concentration is plotted. Cytotoxicity was evaluated in vitro with reference to the IC50 value. The half maximal inhibitory concentration (IC50) is a measure of the effectiveness of a compound to inhibit biological or biochemical functions. According to the FDA, IC50 represents the concentration of a drug/compound/complex that is required for 50% inhibition in vitro. It is evaluated from the survival curves as the concentration needed for a 50% reduction of survival. IC50 values are expressed in μM. The IC50 values were calculated from dose-response curves obtained in replicate experiments.
(§3) The in vitro cytotoxic effect of mixed ligand gold(III) diamine complexes against androgen-resistant prostate PC3 and human gastric SGC7901 cancer cells were studied using MTT assay. […]

SGC7901 cells [9] = assay: In vitro cytotoxic MTT assay, IC50; assay type: cell-based, human; conditions: 72 h exposure
Method: as §2, §3

SMILES	order of time dependent antiproliferative effect (PC3 cells [1])	order of time dependent antiproliferative effect (SGC7901 cells [2])	Ep, peak potential for reduction vs. ENH [3] [V]	cytotoxicity with respect to cisplatin (SGC7901 cells [6])	also measured
NCCN.N[C@@H]1CCCC[C@H]1N.[Cl][Au]([Cl])[Cl] (racemic) [Complex 2, trans-(±)-1,2-diaminocyclohexane ethylenediamine gold(III) chloride]	complex 1>complex 3>complex 2	complex 1>complex 3>complex 2	0.46		
NCCN.N[C@H]1CCCC[C@@H]1N.[Cl][Au]([Cl])[Cl] [Complex 3, (S,S)-(+)-1,2-diaminocyclohexane ethylenediamine gold(III) chloride]	complex 1>complex 3>complex 2	complex 1>complex 3>complex 2	0.51		dissociation of ethylenediamine (en) after 7 days [4]: 25%
NCCN.N[C@@H]1CCCC[C@@H]1N.[Cl][Au]([Cl])[Cl] [Complex 1, cis-1,2-diaminocyclohexane ethylenediamine gold(III) chloride]	complex 1>complex 3>complex 2	complex 1>complex 3>complex 2	0.49		
NCCN.NCCN.[Au+3].[Cl-].[Cl-].[Cl-] [[Au(en)2]Cl3]				slightly lower cytotoxicity	cytotoxic effect compared to cisplatin (PC3 cells [5]): comparable to that of cisplatin
NCCN.[Au+3].[Cl-].[Cl-].[Cl-] [[(en)AuCl2]Cl]				almost two fold more cytotoxic	lower cytotoxicity as compared to cisplatin (PC3 cells [5]): 7-9 fold; cytotoxicity profile compared to cisplatin [7]: comparable to cisplatin
N.N.[Cl][Pt][Cl] [Cisplatin]					IC50 (PC3 cells [8]): 1100 nM; IC50 (SGC7901 cells [9]): 7.3 µM; intrinsic resistance of SGC7901 relative to PC3 cells (SGC7901 cells [6]; SGC7901 vs PC3): 7-8 fold
